Reference: patent US20170157055A1, “PHAR[…] DETERRENT COMPOSITION” (priority 2014, published 2017)
Where two headings read alike, the source gives them in different places.

Procedure: 350 mg of potassium bicarbonate equivalent to single dosage unit was added in beaker 1 while of potassium bicarbonate equivalent to three dosage units were added in beaker 2.

O=C([O-])O.[K+] [potassium bicarbonate]
pH of media after addition (beaker 1: 350 mg (single dosage unit) in 900 ml 0.01N HCl (initial pH 1.90)): 2.30 | pH of media after addition (beaker 2: equivalent to three dosage units in 900 ml 0.01N HCl (initial pH 1.90)): 6.15
